Data reported in paper PMC6021111, “Murine leukemia virus p12 tethers the capsid-containing pre-integration complex to chromatin by binding directly to host nucleosomes in mitosis” (PLoS Pathogens, 2018).

Experiments:
[1] = target: T1, recombinant H3.3 poly-nucleosomes (Homo sapiens, UniProt P62807+P84243+Q93077); test: Biolayer interferometry, peptide binding to poly-nucleosomes; settings: BLI; biotinylated peptide on streptavidin sensor; HEPES pH 7.5, 150 mM NaCl, 25°C
T1 construct: purchased Active Motif
Source text: To identify whether p12 proteins also interact directly with nucleosomes, we used biolayer interferometry (BLI) to probe the binding of recombinant poly-nucleosomal arrays by p12 CTD peptides (Fig 9). Streptavidin sensor probes coated with biotinylated peptide ligands were immersed in ‘analyte’ solutions containing the in vitro assembled nucleosomal arrays to observe any potential interactions. The p12 CTD peptide sequences used are highlighted in bold in Fig 5C. A peptide carrying the PFV hCBS sequence was included in the assays as a positive control.
The binding of PFV hCBS and p12 CTD peptides to recombinant H3.3 poly-nucleosomes (Active Motif) was measured using biolayer interferometry on an Octet RED system (Pall ForteBio Corp). The peptides were synthesised with a N-terminal biotin tag and GGGG linker. The Mo-MLV, FeLV and GaLV p12 CTD peptide sequences used are highlighted in bold in Fig 5C. A negative control was included that contained an R66A change in the Mo-MLV p12_M63I CTD peptide. Mo-MLV phos p12_M63I CTD was also synthesised with a phosphorylated S61 residue. […] Equilibrium binding amplitudes were determined by exponential least squares curve fitting of the association phase. […] Equilibrium binding constant (Kd) and maximum specific binding (Bmax) were calculated by fitting the data to a non-linear regression model. […]

[2] = test system: GST-p12_M63I phosphorylation in 293T cells; test: Kinase inhibition, GST-p12_M63I phosphorylation (PQ/SR); assay type: cell-based; settings: 3.5 h with nocodazole and 10 μM MG132, LiCl 40 mM, roscovitine 75 μM, kenpaullone 40 μM
Protocol: (§1) Glycogen synthase kinase 3 (GSK3) and cyclin-dependent kinase 5 (CDK5) were predicted to phosphorylate Mo-MLV p12 on S61, by the NetPhos 3.1 kinase prediction algorithm. […] These drugs were tested in our biochemical assays for their ability to reduce GST-p12_M63I phosphorylation and chromatin association. In our assays, cells transiently-expressing GST-p12_M63I were cultured in media containing nocodazole overnight, prior to the addition of the kinase inhibitors. […] After removal of the drugs, cells were immediately washed and lysed for glutathione-sepharose bead pull-down assays. The eluates from the beads were analysed by SDS-PAGE followed by sequential staining with PQ and SR dyes to quantify the phosphorylation levels of GST-p12_M63I. LiCl treatment had little effect on GST-p12_M63I phosphorylation (Fig 7A, lane 2). […] To correlate GST-p12_M63I phosphorylation with its ability to interact with chromatin, we quantified the amounts of H2B in the pull-down eluates by immunoblotting. […] The short period of kinase inhibition used in our assays, may have limited the effects observed on GST-p12_M63I phosphorylation.
(§2) GST-p12 proteins were expressed in 293T cells from pCAGGS/GST-derived plasmids by transient transfection using Turbofect (Thermo Fisher Scientific). Approximately 24 h after transfection, cells were changed into fresh media containing either 400 ng/ml nocodazole (Sigma) or 2 μg/ml aphidicolin (Sigma) and incubated overnight at 37°C. The synchronisation of the cell cultures after drug treatment was assessed by propidium iodide staining and cell cycle phase analysis by flow cytometry. Cells to be used in pull down assays were washed and lysed in 20 mM Tris pH 8.0, 300 mM NaCl, 1 mM EDTA, 10% Glycerol, 1% Triton X-100, protease inhibitors (Roche), phosphatase inhibitors (Merck). Lysis was facilitated by passing the lysates through a 19-gauge needle x7 and sonication, x7 pulses, 30 s ON and 30 s OFF, in an ice bath (Decon FS100). […] ProQ diamond and Sypro ruby staining (Thermo Fisher Scientific) of gels was visualised and quantified on a ChemiDoc imaging system (Bio-Rad). […]

[3] = test system: H2B precipitation with GST-p12_M63I, 293T cells; test: Kinase inhibition, H2B pull-down with GST-p12_M63I; assay type: cell-based; settings: 3.5 h with nocodazole and 10 μM MG132; roscovitine 75 μM, kenpaullone 40 μM; immunoblot
Protocol: as §1, §2

[4] = test system: Glycogen synthase kinase 3 (GSK3); settings: cited from earlier work
[5] = test system: cyclin-dependent kinase 5 (CDK5); set-up: method as in PMID 12534346; settings: cited from earlier work
[6] = test system: nucleosome binding to immobilised biotinylated hCBS; test: BLI competition, nucleosome binding to immobilised hCBS; settings: soluble peptide 100 μM; three technical replicates
Protocol: A negative control was included that contained an R66A change in the Mo-MLV p12_M63I CTD peptide. […] The biotinylated peptides were loaded onto streptavidin biosensors (Pall ForteBio Corp) at 0.5 μg/ml for 120 s in 10 mM HEPES pH 7.5, 150 mM NaCl, 0.005% (v/v) Tween 20. […] Experiments were performed at 25°C and sample plates were agitated at 1000 rpm. […] For competition assays, soluble non-biotin tagged peptides were added to the nucleosomal arrays at 100 μM to inhibit nucleosome binding prior to recording BLI measurements with biotinylated peptide immobilised on sensor probes.

[7] = test system: nucleosomes; settings: cited from earlier work
Source text: To identify whether p12 binds to the same nucleosomal docking site as the CBS from PFV Gag, we then tested the ability of p12 CTD peptides to block the binding of nucleosomal arrays to hCBS and vice versa (Fig 9E and 9F).

In the case of `CC[C@H](C)[C@H](NC(=O)[C@@H]1CCCN1C(=O)[C@H](COP(=O)(O)O)NC(=O)[C@@H]1CCCN1C(=O)[C@H](CC(=O)O)NC(=O)CNC(=O)CNC(=O)CNC(=O)CNC(=O)CCCC[C@@H]1SC[C@@H]2NC(=O)N[C@@H]21)C(=O)N[C@@H](C)C(=O)N[C@@H](CO)C(=O)N[C@@H](CCCNC(=N)N)C(=O)N[C@@H](CC(C)C)C(=O)N[C@@H](CCCNC(=N)N)C(=O)NCC(=O)N[C@@H](CCCNC(=N)N)C(=O)N[C@@H](CCCNC(=N)N)C(=O)N[C@@H](CCC(=O)O)C(=O)N1CCC[C@H]1C(=O)N1CCC[C@H]1C(=O)N[C@H](C(=O)O)C(C)C` [phosphorylated p12_M63I], the “binding to nucleosomal arrays” value [1] is reported as “clear binding to nucleosomes”.

In the case of `O=C1Cc2c([nH]c3ccc(Br)cc23)-c2ccccc2N1` [kenpaullone], the “reduction of GST-p12_M63I phosphorylation by kinase inhibitor” value [2] is given as ~ 3 fold, the “reduction of H2B precipitation by kinase inhibitor” value [3] is given as ~ 3.5 fold and the “inhibition of GSK3” value [4] is given as “inhibits both enzymes”. For the same compound, the “inhibition of CDK5” value [5] was “inhibits both enzymes”.

In the case of `CC[C@H](C)[C@H](NC(=O)[C@@H]1CCCN1C(=O)[C@H](CO)NC(=O)[C@@H]1CCCN1C(=O)[C@H](CC(=O)O)NC(=O)CNC(=O)CNC(=O)CNC(=O)CNC(=O)CCCC[C@@H]1SC[C@@H]2NC(=O)N[C@@H]21)C(=O)N[C@@H](C)C(=O)N[C@@H](CO)C(=O)N[C@@H](CCCNC(=N)N)C(=O)N[C@@H](CC(C)C)C(=O)N[C@@H](CCCNC(=N)N)C(=O)NCC(=O)N[C@@H](CCCNC(=N)N)C(=O)N[C@@H](CCCNC(=N)N)C(=O)N[C@@H](CCC(=O)O)C(=O)N1CCC[C@H]1C(=O)N1CCC[C@H]1C(=O)N[C@H](C(=O)O)C(C)C` [non-phosphorylated p12_M63I], the “binding to nucleosomal arrays” value [1] is reported as “clear binding to nucleosomes”.

In the case of “NQGGYNAAPRTYQP [hCBS_L539A/R540A, hCBS peptide with L539A/R540A mutations, reference compound]”, the “decrease of equilibrium binding of nucleosomes to immobilised hCBS” value [6] is given as “not hCBS_L539A/R540A or p12_R66A peptides” and the “binding of hCBS peptides to nucleosomes” value [7] is given as “prevent binding of hCBS peptides to nucleosomes”.

For “DPSPMASALRGRREPPY [p12_R66A, soluble Mo-MLV p12 CTD peptide with R66A]”, the “decrease of equilibrium binding of nucleosomes to immobilised hCBS” value [6] was “not hCBS_L539A/R540A or p12_R66A peptides”.
